The values that follow come from patent US7632829B2, “Diazepan derivatives” (Hoffmann-La Roche Inc., priority 2006, dated 2009).

The target of this experiment is T1, human chemokine receptor 2 isoform B (Homo sapiens, UniProt P41597).
T1 construct: host or cells: CHOK1-CCR2B-A5 (CHO-K1)
T1 sequence (P41597 1-360 isoform P41597-2): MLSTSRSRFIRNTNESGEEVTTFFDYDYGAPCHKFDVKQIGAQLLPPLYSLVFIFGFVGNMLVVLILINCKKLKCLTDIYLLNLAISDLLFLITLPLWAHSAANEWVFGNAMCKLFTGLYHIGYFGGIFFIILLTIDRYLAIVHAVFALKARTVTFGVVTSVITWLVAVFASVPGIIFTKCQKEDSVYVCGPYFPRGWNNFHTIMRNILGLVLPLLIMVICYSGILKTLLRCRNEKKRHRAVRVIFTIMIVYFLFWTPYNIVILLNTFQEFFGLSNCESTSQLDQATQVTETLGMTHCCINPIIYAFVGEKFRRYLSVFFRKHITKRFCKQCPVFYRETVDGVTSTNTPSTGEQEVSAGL
In words: Calcium mobilization assay (FLIPR, CHOK1-CCR2B-A5 cells, 20 nM MCP-1). Format: cell-based. The note with it: Ca mobilisation assay, CCR2, antagonist activity vs 20 nM MCP-1. An outline of the steps:
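FLIPR Fluo-4 calcium readout in CHO-K1 cells stably overexpressing human CCR2B; compounds first monitored 80 s for agonist activity, then after 20-30 min at 30 °C challenged with 20 nM MCP-1. Response is max minus basal fluorescence; antagonist value is concentration giving 50% inhibition of specific calcium increase.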

The IC50 is the concentration needed to halve the response being measured.

On to `O=C(/C=C/c1ccc(Cl)c(F)c1)N1CCC(=O)N(CCCCN2CCC3(CC3)C(O)C2)CC1` (stereo not drawn) [Example 416, 1-[(E)-3-(4-Chloro-3-fluoro-phenyl)-acryloyl]-4-[4-((-)-4-hydroxy-6-aza-spiro[2.5]oct-6-yl)-butyl]-[1,4]diazepan-5-one], for which the half-inhibitory concentration (IC50) stood at 11 nM. As for `C[C@@H]1CN(CCCCN2CCN(C(=O)/C=C/c3ccc(Cl)c(Cl)c3)CCC2=O)CC[C@@H]1O` (racemic) [Example 458], the figure is 148 nM; as for `O=C(/C=C/c1ccc(Cl)cc1)N1CCC(=O)N(CCCN2CCC3(CC3)C(O)C2)CC1` (centres unmarked) [Example 498], 11 nM. With `O=C(/C=C/c1ccc(Cl)c(Cl)c1)N1CCC(=O)N(CCCCCN2CCCCC2)CC1` [Example 162, 1-[(E)-3-(3,4-Dichloro-phenyl)-acryloyl]-4-(5-piperidin-1-yl-pentyl)-[1,4]diazepan-5-one], the 50% inhibitory concentration (IC50) was 319 nM. As to `O=C(/C=C/c1ccc(Cl)c(Cl)c1)N1CCC(=O)N(CCCN2CCOCC2)CC1` [Example 6, 1-[(E)-3-(3,4-Dichloro-phenyl)-acryloyl]-4-(3-morpholin-4-yl-propyl)-[1,4]diazepan-5-one], the IC50 was determined as 1310 nM. Turning to `COC[C@H]1CCN(CCCN2CCN(C(=O)/C=C/c3ccc(Cl)c(Cl)c3)CCC2=O)C[C@H]1O` (racemic) [Example 267, (rac,cis)-1-[(E)-3-(3,4-Dichloro-phenyl)-acryloyl]-4-[3-(3-hydroxy-4-methoxymethyl-piperidin-1-yl)-propyl]-[1,4]diazepan-5-one], the 50% inhibitory concentration (IC50) came out at 214 nM. The figure for `CC1CC(O)CN(CCCCN2CCN(C(=O)C=Cc3ccc(Cl)c(Cl)c3)CCC2=O)C1` (mixture of isomers) [Example 482, (rac,cis)-1-[(E)-3-(3,4-Dichloro-phenyl)-acryloyl]-4-[4-(3-hydroxy-5-methyl-piperidin-1-yl)-butyl]-[1,4]diazepan-5-one] is 13 nM; for `C[C@@]1(CO)CCN(CCCN2CCN(C(=O)/C=C/c3ccc(F)c(Cl)c3)CCC2=O)C[C@H]1O` (racemic) [Example 220] it is 169 nM; for `O=C(/C=C/c1ccc(F)c(Cl)c1)N1CCC(=O)N(CCCCN2CCC(O)CC2)CC1` [Example 384] it is 334 nM.

Take `C[C@H]1[C@H](O)CCCN1CC(O)CCN1CCN(C(=O)/C=C/c2ccc(Cl)c(Cl)c2)CCC1=O` (relative stereo) [Example 362]: the IC50 stood at 504 nM. With `CC1C(O)CCCN1CCCN1CCN(C(=O)C=Cc2ccc(Cl)c(Cl)c2)CCC1=O` (mixture of isomers) [Example 225, (rac,trans)-1-[(E)-3-(3,4-Dichlorophenyl)-acryloyl]-4-[3-(3-hydroxy-2-methyl-piperidin-1-yl)-propyl]-[1,4]diazepan-5-one], the half-maximal inhibitory concentration (IC50) worked out at 243 nM. As for `CC1(CO)CCCN1CC(O)CN1CCN(C(=O)C=Cc2ccc(Cl)c(Cl)c2)CCC1=O` (racemic) [Example 322], the figure is 1200 nM. The figure for `CC1CCN(CCCN2CCN(C(=O)/C=C/c3ccc(F)c(Cl)c3)CCC2=O)CC1O` (single isomer, unassigned) [Example 191, 1-[(E)-3-(3-Chloro-4-fluoro-phenyl)-acryloyl]-4-[3-((−, cis)-3-hydroxy-4-methyl-piperidin-1-yl)-propyl]-[1,4]diazepan-5-one] is 25 nM; for `CC1CN(CC(O)CN2CCN(C(=O)/C=C/c3ccc(Cl)c(Cl)c3)CCC2=O)CCC1O` (racemic) [Example 300] it is 981 nM. The figure for `CCN(CCO)CCCCN1CCN(C(=O)/C=C/c2ccc(Cl)c(Cl)c2)CCC1=O` [Example 461] is 614 nM. In the case of `O=C(C=Cc1ccc(Cl)c(Cl)c1)N1CCC(=O)N(CCNC2CCC(O)(c3ccccn3)CC2)CC1` (stereo not drawn) [Example 105, trans-1-[(E)-3-(3,4-Dichloro-phenyl)-acryloyl]-4-[3-(4-hydroxy-4-pyridin-2-yl-cyclohexylamino)-ethyl]-[1,4]diazepan-5-one], the IC50 was 806 nM. As for `CC1CCC(O)CN1CCCCN1CCN(C(=O)/C=C/c2ccc(Cl)c(F)c2)CCC1=O` (racemic) [Example 413], the figure is 77 nM. As for `O=C(/C=C/c1ccc(Cl)c(Cl)c1)N1CCC(=O)N(CCCN2CCC(O)(c3ncco3)CC2)CC1` [Example 85, 1-[(E)-3-(3,4-Dichloro-phenyl)-acryloyl]-4-[3-(4-hydroxy-4-oxazol-2-yl-piperidin-1-yl)-propyl]-[1,4]diazepan-5-one], the figure is 1170 nM; as for `O=C(/C=C/c1ccc(Cl)c(Cl)c1)N1CCC(=O)N(CCCCN2CCCCC2)CC1` [Example 9, 1-[(E)-3-(3,4-Dichloro-phenyl)-acryloyl]-4-(4-piperidin-1-yl-butyl)-[1,4]diazepan-5-one], 140 nM. With `O=C(/C=C/c1ccc(Cl)c(Cl)c1)N1CCC(=O)N(CCCCN2CC(O)CCC2CO)CC1` (racemic) [Example 476], the concentration for half-maximal inhibition (IC50) turned out to be 18 nM. The figure for `CC1(CO)CCN(CCCN2CCN(C(=O)/C=C/c3ccc(Cl)c(Cl)c3)CCC2=O)CC1` [Example 254] is 108 nM; for `CC1(O)CCCN(CC(O)CN2CCN(C(=O)/C=C/c3ccc(Cl)c(Cl)c3)CCC2=O)C1` (racemic) [Example 303] it is 257 nM; for `CC(=O)NC1CCN(CCCN2CCN(C(=O)/C=C/c3ccc(Cl)c(Cl)c3)CCC2=O)C1` (racemic) [Example 44, (+/−)-N-[1-(E)-(3-{4-[3-(3,4-Dichloro-phenyl)-acryloyl]-7-oxo-[1,4]diazepan-1-yl}-propyl)-pyrrolidin-3-yl]-acetamide] it is 646 nM.

As to `O=C(/C=C/c1ccc2ccccc2c1)N1CCC(=O)N(CCCN2CCCCC2)CC1` [Example 157, 1-((E)-3-Naphthalen-2-yl-acryloyl)-4-(3-piperidin-1-yl-propyl)-[1,4]diazepan-5-one], the IC50 is 703 nM. `CC1CN(CCCCN2CCN(C(=O)/C=C/c3ccc(Cl)c(Cl)c3)CCC2=O)CCC1O` (racemic) [Example 440]: the IC50 was determined as 103 nM. As for `CO[C@@H]1CN(CCCCN2CCN(C(=O)/C=C/c3ccc(Cl)c(Cl)c3)CCC2=O)CC[C@@H]1CO` (racemic) [Example 472], the figure is 418 nM.

On to `COCC1(C)CCCN(CC(O)CN2CCN(C(=O)/C=C/c3ccc(Cl)c(Cl)c3)CCC2=O)C1` (racemic) [Example 306], for which the IC50 is 391 nM.

Regarding `O=C(/C=C/c1ccc(F)c(Cl)c1)N1CCC(=O)N(CCCCN2CCCC(CO)C2)CC1` (racemic) [Example 385], the half-inhibitory concentration (IC50) was found to be 310 nM. The figure for `CC1CCC(N(C)CCN2CCN(C(=O)/C=C/c3ccc(Cl)c(Cl)c3)CCC2=O)CC1` (mixture of isomers) [Example 124, cis/trans-1-[(E)-3-(3,4-Dichloro-phenyl)-acryloyl]-4-{3-[methyl-(4-methyl-cyclohexyl)-amino]-ethyl}-[1,4]diazepan-5-one] is 667 nM; for `C[C@@H]1C[C@H](O)CN(CC(O)CN2CCN(C(=O)/C=C/c3ccc(F)c(F)c3)CCC2=O)C1` (mixture of isomers) [Example 504] it is 316 nM; for `C[C@@H]1CCN(CCCCN2CCN(C(=O)/C=C/c3ccc(Cl)c(Cl)c3)CCC2=O)C[C@H]1O` (racemic) [Example 454, (rac)-1-[(E)-3-(3,4-Dichloro-phenyl)-acryloyl]-4-[4-(trans-3-hydroxy-4-methyl-piperidin-1-yl)-butyl]-[1,4]diazepan-5-one] it is 230 nM. The figure for `O=C(/C=C/c1ccc(Cl)c(Cl)c1)N1CCC(=O)N(CCCN2CC[C@H](CO)[C@@H](O)C2)CC1` (racemic) [Example 268, (rac,trans)-1-[(E)-3-(3,4-Dichloro-phenyl)-acryloyl]-4-[3-(3-hydroxy-4-hydroxymethyl-piperidin-1-yl)-propyl]-[1,4]diazepan-5-one] is 215 nM; for `CO[C@@H]1CN(CCCN2CCN(C(=O)/C=C/c3ccc(Cl)c(Cl)c3)CCC2=O)CC[C@@H]1CO` (racemic) [Example 269, (rac,cis)-1-[(E)-3-(3,4-Dichloro-phenyl)-acryloyl]-4-[3-(3-methoxy-4-hydroxymethyl-piperidin-1-yl)-propyl]-[1,4]diazepan-5-one] it is 619 nM; for `O=C(C=Cc1ccc(Cl)c(Cl)c1)N1CCC(=O)N(CCCN2CCC(CO)C(O)C2)CC1` (mixture of isomers) [Example 266, (rac,cis)-1-[(E)-3-(3,4-Dichloro-phenyl)-acryloyl]-4-[3-(3-hydroxy-4-hydroxymethyl-piperidin-1-yl)-propyl]-[1,4]diazepan-5-one] it is 77 nM. On to `O=C(/C=C/c1ccc(F)c(Cl)c1)N1CCC(=O)N(C[C@@H](O)CN2CCCCC2)CC1` [Example 175, 1-[(E)-3-(3-Chloro-4-fluoro-phenyl)-acryloyl]-4-((S)-2-hydroxy-3-piperidin-1-yl-propyl)-[1,4]diazepan-5-one], for which the IC50 was 96 nM. Consider `CC1(C)CN(CCCCN2CCN(C(=O)/C=C/c3ccc(Cl)c(Cl)c3)CCC2=O)CCC1O` (racemic) [Example 464], for which the IC50 came out at 226 nM.

With `CC1(C)CN(CCCN2CCN(C(=O)/C=C/c3ccc(Cl)c(Cl)c3)CCC2=O)CCC1O` (racemic) [Example 257], the IC50 is 182 nM.

As to `O=C1CC2(CCN(CCCN3CCN(C(=O)/C=C/c4ccc(F)c(Cl)c4)CCC3=O)CC2)CN1` [Example 198], the concentration for half-maximal inhibition (IC50) turned out to be 739 nM.
